This is an account of results in patent US20250099383A1, “COMPOSITIONS AND METHODS FOR DELIVERY OF NUCLEIC ACIDS” (Poseida Therapeutics, Inc., priority 2022, published 2025).

The data set can be described thus: Physical characteristics of LNPs (particle size, PDI). Type of data set: physicochemical. The conditions noted are these: for PDI DNA / Particle Size (nm) DNA: LNP with Fluc DNA, compound/DOPE/Cholesterol/DMG-PEG2000 38/50/10.0/2.0, Lipid:DNA 45:1 (w/w); for PDI RNA / Particle Size (nm) RNA: LNP with Fluc mRNA, compound/DOPE/Cholesterol/DMG-PEG2000 41.44/45.85/10/2.7, Lipid:RNA 40:1 (w/w). The protocol:
LNP compositions of the present disclosure comprising exemplary compounds of Formula (I) were prepared by combining various percentages of an exemplary compound of Formula (I), the phospholipid DOPE, the structural lipid cholesterol (Chol) and 1,2-dimyristoyl-sn-glycerol methoxypolyethylene glycol (DMG-PEG2000; Avanti Polar Lipids, Alabaster, Alabama, USA).
Individual 25 mg/ml stock solutions were prepared by solubilizing the lipids in 200-proof HPLC-grade ethanol and stock solutions were stored at −80° C. until formulated. At the time of formulation, the lipid stock solutions were briefly allowed to equilibrate to room temp and then placed on a hot plate maintained at a temperature range of 50-55° C.
A 1 mg/ml solution of the desired mRNA or DNA to be incorporated into the LNPs was added to 150 mM sodium acetate buffer (pH 5.2) to form a stock solution and kept on ice. The aqueous mRNA or DNA was then added to the lipids as shown in Table 4 or 5 and hand-mixed vigorously with a single channel pipettor.
The resultant mRNA or DNA LNP compositions were then transferred to a Repligen Float-A-Lyzer dialysis device-having a molecular weight cut off (MWCO) of 8-10 kDa (Spectrum Chemical Mfg. Corp, CA, USA) and processed by dialysis against phosphate buffered saline (PBS) (dialysate: dialysis buffer volume at least 1:200 v/v), pH 7.4 overnight at 4° C. (or alternatively room temperature for at least 4 hours), to remove the 25% ethanol and achieve a complete buffer exchange. In some experiments the LNPs were further concentrated by in an Amicon® Ultra-4 centrifugal filter unit, MWCO-30 kDa (Millipore Sigma, USA) spun at ˜4100 x g in an ultracentrifuge. The mRNA and DNA LNPs were then stored at 4° C. until further use.
LNP compositions of the present disclosure comprising mRNA or DNA encoding firefly luciferase (hereafter “Fluc”; TriLink) and COMPOUNDS 5-49 were prepared as described in Example 61 by combining one of COMPOUNDS 5-49, the phospholipid DOPE, the structural lipid cholesterol (Chol) and 1,2-dimyristoyl-sn-glycerol methoxypolyethylene glycol (DMG-PEG2000) in the percentages presented in Tables 6 and 7:
The physical characteristics of the resulting LNPs were analyzed.
A 1 mg/ml solution of the 5′-CleanCap--fLuciferase mRNA (TriLink Biotech) to be incorporated into the LNPs was added to 150 mM sodium acetate buffer (pH 5.2) to form a stock solution and kept on ice. The lipid phase was mixed with the aqueous mRNA phase inside a microfluidic chip using a NanoAssemblr® instrument (Precision Nanosystems, Vancouver, BC, Canada) according to the manufacturer's instructions to form LNP compositions comprising encapsulated mRNAs.
The average particle size diameter of the LNPs was approximately 75-150 nm.

`CC(C)=CCCC1=CCC(C(=O)OCCOC(=O)CCN(CCCCCCN(CCC(=O)OCCOC(=O)C2CC=C(CCC=C(C)C)CC2)CCC(=O)OCCOC(=O)C2CC=C(CCC=C(C)C)CC2)CCC(=O)OCCOC(=O)C2CC=C(CCC=C(C)C)CC2)CC1` (centres unmarked) [Compound 20]: the “PDI DNA” value is given as 0.223, the “Particle Size (nm) DNA” value amounted to 304.3 nm, the “PDI RNA” value came out at 0.082 and the “Particle Size (nm) RNA” value is reported as 316.9 nm.
As to `CC(C)=CCCC1=CCC(C(=O)OCCOC(=O)CCN(CCC(=O)OCCOC(=O)C2CC=C(CCC=C(C)C)CC2)CC(C)N(CCC(=O)OCCOC(=O)C2CC=C(CCC=C(C)C)CC2)CCC(=O)OCCOC(=O)C2CC=C(CCC=C(C)C)CC2)CC1` (centres unmarked) [Compound 21], the “PDI DNA” value is given as 0.206, the “Particle Size (nm) DNA” value is 268.3 nm, the “PDI RNA” value is 0.102 and the “Particle Size (nm) RNA” value is reported as 296.9 nm.
As for `CC(C)CCCC1CCC(C(=O)OCCOC(=O)CCN(CCC(=O)OCCOC(=O)C2CCC(CCCC(C)C)CC2)CC(C)N(CCC(=O)OCCOC(=O)C2CCC(CCCC(C)C)CC2)CCC(=O)OCCOC(=O)C2CCC(CCCC(C)C)CC2)CC1` (centres unmarked) [Compound 28], the “PDI DNA” value is reported as 0.12, the “Particle Size (nm) DNA” value is given as 224.7 nm, the “PDI RNA” value was 0.027 and the “Particle Size (nm) RNA” value is on record as 254.2 nm.
On the same counts, the results for `CCN(CCOC(=O)C1CC=C(CCC=C(C)C)CC1)CCOC(=O)C1CC=C(CCC=C(C)C)CC1` (centres unmarked) [Compound 43] are 0.185, 286.7 nm, 0.079 and 310.1 nm.
The matching figures for `CC(C)=CCC/C(C)=C/CCC1=CCC(C(=O)OCCOC(=O)CCN(CCCN(C)C)CCC(=O)OCCOC(=O)C2CC=C(CC/C=C(\C)CCC=C(C)C)CC2)CC1` (centres unmarked) [Compound 5, (E)-((3,3′-((3-(dimethylamino)propyl)azanediyl)bis(propanoyl))bis(oxy)) bis(ethane-2,1-diyl)bis(4-((E)-4,8-dimethylnona-3,7-dien-1-yl)cyclohex-3-enecarboxylate)]: 0.203, 187.9 nm, 0.200 and 180.3 nm.
`CC(C)=CCC/C(C)=C/CCC1=CCC(C(=O)OCCOC(=O)CN(C)CC(=O)OCCOC(=O)C2CC=C(CC/C=C(\C)CCC=C(C)C)CC2)CC1` (centres unmarked) [Compound 37]: the “PDI DNA” value is 0.165, the “Particle Size (nm) DNA” value came to 337.2 nm, the “PDI RNA” value is listed as 0.091 and the “Particle Size (nm) RNA” value was determined as 356.2 nm.
For `CC(C)=CCCC1=CCC(C(=O)OCCOC(=O)CCN(CCC(=O)OCCOC(=O)C2CC=C(CCC=C(C)C)CC2)CCN(CCN(CCC(=O)OCCOC(=O)C2CC=C(CCC=C(C)C)CC2)CCC(=O)OCCOC(=O)C2CC=C(CCC=C(C)C)CC2)CCN(CCC(=O)OCCOC(=O)C2CC=C(CCC=C(C)C)CC2)CCC(=O)OCCOC(=O)C2CCC(CCC=C(C)C)CC2)CC1` (centres unmarked) [Compound 24], the “PDI DNA” value is recorded as 0.294, the “Particle Size (nm) DNA” value is on record as 353.7 nm, the “PDI RNA” value was found to be 0.106 and the “Particle Size (nm) RNA” value was 314.9 nm.
On the same counts, the results for `CC(C)CCCC(C)CCCC1CCC(C(=O)OCCOC(=O)CCN(CCC(=O)OCCOC(=O)C2CCC(CCCC(C)CCCC(C)C)CC2)CCN2CCCCC2)CC1` (centres unmarked) [Compound 13, ((3,3′-((2-(piperidin-1-yl)ethyl)azanediyl)bis(propanoyl))bis(oxy)) bis(ethane-2,1-diyl)bis(4-(4,8-dimethylnonyl)cyclohexanecarboxylate)] are 0.232, 174.1 nm, 0.272 and 120.6 nm.
The matching figures for `CC(C)=CCC/C(C)=C/CCC1=CCC(C(=O)OCCOC(=O)CCN(CCC(=O)OCCOC(=O)C2CC=C(CC/C=C(\C)CCC=C(C)C)CC2)CCN2CCCCC2)CC1` (centres unmarked) [Compound 6, (E)-((3,3′-((2-(piperidin-1-yl)ethyl)azanediyl)bis(propanoyl))bis(oxy)) bis(ethane-2,1-diyl)bis(4-((E)-4,8-dimethylnona-3,7-dien-1-yl)cyclohex-3-enecarboxylate)]: 0.154, 167 nm, 0.260 and 202.2 nm.
The matching figures for `CC(C)=CCCC1=CCC(C(=O)OCCN(CCOC(=O)C2CC=C(CCC=C(C)C)CC2)CCOC(=O)C2CC=C(CCC=C(C)C)CC2)CC1` (centres unmarked) [Compound 48]: 0.202, 291.3 nm, 0.088 and 324.9 nm.
For `CC(C)CCCC(C)CCCC1CCC(C(=O)OCCOC(=O)CCN(CCC(=O)OCCOC(=O)C2CCC(CCCC(C)CCCC(C)C)CC2)CC(C)N(CCC(=O)OCCOC(=O)C2CCC(CCCC(C)CCCC(C)C)CC2)CCC(=O)OCCOC(=O)C2CCC(CCCC(C)CCCC(C)C)CC2)CC1` (centres unmarked) [Compound 15], the “PDI DNA” value stood at 0.183, the “Particle Size (nm) DNA” value was determined as 297.6 nm, the “PDI RNA” value came to 0.115 and the “Particle Size (nm) RNA” value was 362.5 nm.
The matching figures for `CC(C)=CCC/C(C)=C/CCC1=CCC(C(=O)OCCN2CCN(CCOC(=O)C3CC=C(CC/C=C(\C)CCC=C(C)C)CC3)CC2)CC1` (centres unmarked) [Compound 36]: 0.091, 286.1 nm, 0.09 and 260.6 nm.
On the same counts, the results for `CCCCCCCC/C=C\CCCCCCCC(=O)OCCN(C)CCOC(=O)C1CC=C(CC/C=C(\C)CCC=C(C)C)CC1` (centres unmarked) [Compound 41] are 0.085, 295.1 nm, 0.057 and 306.1 nm.
With `CC(C)=CCC/C(C)=C/CCC1=CCC(C(=O)OCCN(C)CCO)CC1` (centres unmarked) [Compound 40], the “PDI DNA” value was found to be 0.146, the “Particle Size (nm) DNA” value stood at 251.2 nm, the “PDI RNA” value amounted to 0.179 and the “Particle Size (nm) RNA” value was found to be 255.5 nm.
The matching figures for `CC(C)=CCCC1=CCC(C(=O)OCCN(CCOC(=O)C2CC=C(CCC=C(C)C)CC2)C(C)(C)C)CC1` (centres unmarked) [Compound 45]: 0.082, 340.4 nm, 0.131 and 356.1 nm.
For `CC(C)=CCC/C(C)=C/CCC1=CCC(C(=O)OCCN(CCOC(=O)C2CC=C(CC/C=C(\C)CCC=C(C)C)CC2)C(C)(C)C)CC1` (centres unmarked) [Compound 35], the “PDI DNA” value amounted to 0.129, the “Particle Size (nm) DNA” value is 298.2 nm, the “PDI RNA” value was 0.149 and the “Particle Size (nm) RNA” value is 364.7 nm.
On the same counts, the results for `CC(C)CCCC(C)CCCC1CCC(C(=O)OCCOC(=O)CCN(CCC(=O)OCCOC(=O)C2CCC(CCCC(C)CCCC(C)C)CC2)CCN(CCN(CCC(=O)OCCOC(=O)C2CCC(CCCC(C)CCCC(C)C)CC2)CCC(=O)OCCOC(=O)C2CCC(CCCC(C)CCCC(C)C)CC2)CCN(CCC(=O)OCCOC(=O)C2CCC(CCCC(C)CCCC(C)C)CC2)CCC(=O)OCCOC(=O)C2CCC(CCCC(C)CCCC(C)C)CC2)CC1` (centres unmarked) [Compound 18] are 0.072, 368.6 nm, 0.153 and 323.3 nm.
